One data set deals with humans. The conditions noted are these: loperamide, aggressive high-dose co-therapy, 2 hr intervals at onset of diarrhea; cited from earlier work.
The test system of another data set is hamster colon. Briefly: Tamoxifen pre- and co-treatment of CPT-11-treated hamsters: colon morphology and function. It is filed as in vivo. As to conditions: tamoxifen pre- and co-treatment with CPT-11.
For data set [1], the system named is MCF-7 breast cancer cells. The conditions noted are these: tamoxifen, Otto et al. 1996, cited from earlier work.
The test system of a further data set is cyclin D1/cdk4. As to conditions: thought to be the mechanism; Watts et al. 1995; cited from earlier work.
The test system of a further data set is hamsters. Briefly: Tamoxifen pre- and co-treatment of CPT-11-treated hamsters: weight loss and survival. It is filed as in vivo, hamster.
The subject of the next data set is WI-38 cells. Briefly: Effect of tamoxifen on replication of SN-38-treated normal WI-38 cells. Type of data set: cell-based, human. As to conditions: WI-38 (non-tumor) pretreated with tamoxifen prior to and during SN-38 exposure.
Data set [2] has as its system WI-38 normal human diploid lung fibroblasts. The data set can be described thus: Growth inhibition of WI-38 normal human diploid lung fibroblasts. It is filed as cell-based. The conditions noted are these: WI-38 fibroblasts.
Data set [3] shares this test system. The conditions noted are these: normal WI-38 human fibroblasts; cited from earlier work.
Data set [4] relates to HT-29 cells. The data set can be described thus: Growth inhibition of human colon adenocarcinoma HT-29 cells. Type of data set: cell-based.
Data set [5] deals with HT-29 cells. The conditions noted are these: HT-29 human adenocarcinoma cells; Bacon et al. 1996 abstract; cited from earlier work.
Data set [6] relates to WI-38 normal human diploid lung fibroblasts. The data set can be described thus: Flow cytometry cell cycle arrest, apoptosis and recovery in WI-38 fibroblasts. Type of data set: cell-based.
Data set [7] deals with p21. Briefly: p21 detection in HT-29 cells. Type of data set: cell-based, human.
The subject of data set [8] is p53. The data set can be described thus: Western immunoblot: p53 level in HT-29 cells. It is filed as cell-based, human. As to conditions: HT-29, mutant (inactive) p53, Western immunoblot.
Data set [9] deals with PCNA. The data set can be described thus: PCNA level in HT-29 cells. Type of data set: cell-based, human.
Data set [10] has as its system PCNA. The data set can be described thus: PCNA level in WI-38 fibroblasts. It is filed as cell-based, human. The conditions noted are these: WI-38, IC90 of SN-38 (40 nM).
Data set [11] has as its system p21. The data set can be described thus: p21 level in WI-38 fibroblasts. Type of data set: cell-based, human. As to conditions: WI-38, following p53 and PCNA increase.
The subject of data set [12] is p53. Briefly: p53 level in WI-38 fibroblasts. It is filed as cell-based, human. The conditions noted are these: WI-38, IC90 of SN-38 (40 nM).
Data set [13] has as its system HT-29 cells. Briefly: Flow cytometric cell cycle arrest and apoptosis in HT-29 cells. It is filed as cell-based, human.
In a further data set the test system is beta-glucuronidase. The conditions noted are these: cited from earlier work.
A further data set has as its system cells. As to conditions: droloxifene, Hasmann et al. 1994; cited from earlier work.
The subject of data set [14] is intestinal epithelium. Briefly: Irinotecan toxicity in the Syrian hamster: intestinal epithelium, diarrhea, weight loss.
Data set [15] relates to proliferating cell nuclear antigen (PCNA). The data set can be described thus: Western immunoblot and immunohistochemistry for PCNA in irinotecan-treated hamster intestinal epithelium. The conditions noted are these: Western immunoblot.
The subject of data set [16] is intestinal epithelium. As to conditions: hamster, in vivo.
Data set [17] deals with proliferating cell nuclear antigen (PCNA). As to conditions: hamster, in vivo.
In another data set the test system is cancer patients. The conditions noted are these: cited from earlier work.

The structures appear in SMILES notation. “Also recorded” adds a separate entry of the source. Structures can show the parent of a compound that is named as a salt. Where two headings read alike, the source gives them in different places.

For the molecule `CN(C)C(=O)C(CCN1CCC(O)(c2ccc(Cl)cc2)CC1)(c1ccccc1)c1ccccc1` [loperamide], the control of diarrhea result in the data set on humans is on record as “successful in most cases”.

On to `CC/C(=C(\c1ccccc1)c1ccc(OCCN(C)C)cc1)c1ccccc1` [tamoxifen], for which, in the data set with hamster colon, the “morphology and function of the colon” value is “improvement in morphology and function of the hamster colon; also recorded: reduces the colonic pathology and physiological effects”. The figures for the cell cycle block result in [1] and in [1] (listed as Tamoxifen) were “blocks cell cycle progression in G0 /G1” and “block in the G0 /G1 phase of the cell cycle”, respectively. The “repression of G1-specific protein kinase activity” value with cyclin D1/cdk4 is “repression of G1 -specific protein kinase activity”. In addition, the “weight loss associated with CPT-11 administration” value with hamsters (tamoxifen pre- and co-treatment) was “reduced; also recorded: reduces weight loss attributable to diarrhea”. Moreover, in the data set on hamsters (tamoxifen pre- and co-treatment with CPT-11), the survival result is “survival increased”. In the data set on WI-38 cells, the “recovery of replication after SN-38” value was “regained replication kinetics to a greater extent; also recorded: enhances the recovery of a non-tumor cell line from SN-38-induced inhibition”.

For `CCc1c2c(nc3ccc(O)cc13)-c1cc3c(c(=O)n1C2)COC(=O)[C@]3(O)CC` [SN-38], the IC90 in [2] worked out at 40 nM; in the data set with HT-29 cells [4], 10 nM. Also, the cell cycle arrest entry in data set [3] was “arrested in S/G2”. Further, in the data set on HT-29 cells [4] (SN-38 10 nM), the inhibition at 0.01 µM was over 90%. Also, in the data set with HT-29 cells [5], the “cell cycle arrest and apoptosis” value is listed as “arrest in G2 /M followed by apoptosis”. Moreover, in data set [6] (WI-38, IC90 of SN-38 (40 nM)), the apoptosis result is “did not undergo apoptosis”. Besides, the “cell cycle arrest (flow cytometry)” value in [6] (WI-38, IC90 of SN-38 (40 nM)) is “arrested in the S phase of the cell cycle”; in the data set with HT-29 cells [13] (HT-29, growth-arrested cells) it was “replication was blocked in the G2 phase of the cell cycle”. The “re-entry into the cell cycle” value in data set [6] (WI-38, when drug was removed) was “slowly re-entered the cell cycle when drug was removed”. Further, the p21 result was “p21 is not upregulated; we have been unable to detect p21” with p21 [7] and “followed by increases in p21” in the data set on p21 [11]. For the same molecule, the “levels of p53” value in the data set on p53 [8] is “upregulated”. In addition, the results for the PCNA levels entry in the data set on PCNA [9] and with PCNA [10] were “increased” and “increased along with PCNA”, respectively. The “levels of p53 (wild type)” value in the data set on p53 [12] is “increased”. Besides, the “apoptosis / recovery from arrest” value in the data set with HT-29 cells [13] (HT-29, after arrest) is recorded as “cells did not recover but instead underwent programmed cell death (apoptosis)”.

`O=C(O)[C@H]1O[C@@H](Oc2cc3oc(-c4ccccc4)cc(=O)c3c(O)c2O)[C@H](O)[C@@H](O)[C@@H]1O` [Baicalin, baicalin]: in the data set with beta-glucuronidase, the “inhibition of beta-glucuronidase (presumed anti-diarrheal mechanism)” value is recorded as “has similar activity”.

With `CC/C(=C(/c1ccc(OCCN(C)C)cc1)c1cccc(O)c1)c1ccccc1` [droloxifene], the cell cycle block result in the data set with cells is recorded as “block cells in the G1 phase of the cell cycle in a manner similar to tamoxifen”.

In the case of `CCc1c2c(nc3ccc(OC(=O)N4CCC(N5CCCCC5)CC4)cc13)-c1cc3c(c(=O)n1C2)COC(=O)[C@]3(O)CC` [irinotecan, irinotecan hydrochloride], in the data set with intestinal epithelium [14] (coincident with onset of delayed diarrhea), the “toxicity to the intestinal epithelium” value is “considerable toxicity to the intestinal epithelium”. For the same molecule, in the data set with intestinal epithelium [14] (histology), the “crypts / epithelial cells” value was “apparent reduction of crypts and/or a loss of epithelial cells”. Also, in data set [15], the “time of detection of PCNA elevation” value amounted to 1 days. Besides, in the data set on intestinal epithelium [16], the colon epithelium histology entry is “thinned and vacuolated”; the “crypt cell replication (bromodeoxyuridine labelling)” value is reported as “reduction in crypt cell replication”; the “diarrhea and weight loss” value is “coincident with diarrhea and weight loss”; the “structural integrity of the mucosal epithelium” value was “time-dependent loss of structural integrity of the mucosal epithelium in the jejunum and ileum; villi appeared corrugated and epithelial cells lost their typical columnar morphology”. Further, the “water and electrolyte loss” value with intestinal epithelium [16] is “increased water and electrolyte loss”. Also, in data set [17], the “PCNA elevation (Western immunoblot)” value was “time-dependent elevation in proliferating cell nuclear antigen (PCNA)”; the PCNA immunohistochemistry result is “increase in the number of labelled epithelial cells and labelling intensity in treated animals, with labelled cells positionally located farther towards the villus tip compared to controls”. Besides, the major dose-limiting toxicity entry in the data set with cancer patients (cancer patients) is listed as “severe delayed chronic grade 3-4 diarrhea”. For the same molecule, the “intestinal toxicity (diarrhea)” value in the data set with cancer patients (humans, CAMPTOSAR Injection) is listed as “potentially life-threatening intestinal toxicity (diarrhea)”. The antitumor activity entry in the data set with cancer patients (variety of tumor types) was “activity against a variety of tumor types, and in particular refractory colorectal tumors”.

The values above are taken from patent US6087377A (priority 1999, dated 2000).
